What all share (format): cell-based
One test deals with human TLR7 (Homo sapiens (Human), UniProt Q9NYK1). The test is described as follows: TLR7 inhibition reporter assay (HEK-Blue, SEAP). The following applies: HEK-Blue cells overexpressing human TLR7, gardiquimod 7.5 μM stimulation. A digest of the protocol: (§1)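 Percent inhibition of agonist-induced SEAP secretion was scored against DMSO-only and reference-inhibitor controls. Stimulation lasted 22 h at 37 °C following 30 min compound pre-exposure (0.05 nM–50 μM); ligands were gardiquimod 7.5 μM, R848 15.9 μM and ODN2006 5 nM for TLR7, 8 and 9.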
In general terms: A reporter such as luciferase makes a cellular process visible.

A further test concerns the target human TLR8 (Homo sapiens (Human), UniProt Q9NR97). Put plainly: TLR8 inhibition reporter assay (HEK-Blue, SEAP). The following applies: HEK-Blue cells overexpressing human TLR8, R848 15.9 μM stimulation. Summed up: as §1
Another test addresses human TLR9 (Homo sapiens (Human), UniProt Q9NR96). Put plainly: TLR9 inhibition reporter assay (HEK-Blue, SEAP). Particulars: HEK-Blue cells overexpressing human TLR9, ODN2006 5 nM stimulation. A digest of the protocol: as §1

human TLR7, sequence (Q9NYK1 27-1049): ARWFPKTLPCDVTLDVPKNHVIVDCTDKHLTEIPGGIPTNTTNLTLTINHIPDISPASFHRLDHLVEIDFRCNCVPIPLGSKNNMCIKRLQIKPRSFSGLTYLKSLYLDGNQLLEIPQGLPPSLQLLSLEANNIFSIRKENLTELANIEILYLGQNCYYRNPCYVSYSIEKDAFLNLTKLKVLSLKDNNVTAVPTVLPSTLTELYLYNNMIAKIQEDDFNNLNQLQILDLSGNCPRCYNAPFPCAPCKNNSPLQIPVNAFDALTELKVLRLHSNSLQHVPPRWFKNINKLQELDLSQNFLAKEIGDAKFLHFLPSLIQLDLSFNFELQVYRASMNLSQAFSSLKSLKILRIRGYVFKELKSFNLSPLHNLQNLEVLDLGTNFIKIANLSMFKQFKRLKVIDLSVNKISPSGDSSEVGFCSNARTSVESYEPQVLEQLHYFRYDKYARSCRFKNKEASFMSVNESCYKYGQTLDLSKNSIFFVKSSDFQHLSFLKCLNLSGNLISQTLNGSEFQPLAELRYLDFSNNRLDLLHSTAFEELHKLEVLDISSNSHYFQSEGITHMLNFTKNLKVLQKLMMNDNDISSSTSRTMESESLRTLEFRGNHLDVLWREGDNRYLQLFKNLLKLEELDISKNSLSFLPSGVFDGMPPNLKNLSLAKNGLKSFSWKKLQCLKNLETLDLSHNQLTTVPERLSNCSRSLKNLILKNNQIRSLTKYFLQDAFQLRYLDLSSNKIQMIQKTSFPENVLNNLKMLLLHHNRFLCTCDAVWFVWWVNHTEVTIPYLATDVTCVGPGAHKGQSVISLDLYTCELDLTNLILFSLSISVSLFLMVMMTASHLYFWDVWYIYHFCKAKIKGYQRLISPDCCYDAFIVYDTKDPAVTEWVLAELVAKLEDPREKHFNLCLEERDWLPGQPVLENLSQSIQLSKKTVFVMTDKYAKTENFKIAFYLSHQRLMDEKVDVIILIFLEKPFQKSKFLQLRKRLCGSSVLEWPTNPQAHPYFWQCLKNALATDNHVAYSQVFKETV
human TLR9, sequence (Q9NR96 26-1032): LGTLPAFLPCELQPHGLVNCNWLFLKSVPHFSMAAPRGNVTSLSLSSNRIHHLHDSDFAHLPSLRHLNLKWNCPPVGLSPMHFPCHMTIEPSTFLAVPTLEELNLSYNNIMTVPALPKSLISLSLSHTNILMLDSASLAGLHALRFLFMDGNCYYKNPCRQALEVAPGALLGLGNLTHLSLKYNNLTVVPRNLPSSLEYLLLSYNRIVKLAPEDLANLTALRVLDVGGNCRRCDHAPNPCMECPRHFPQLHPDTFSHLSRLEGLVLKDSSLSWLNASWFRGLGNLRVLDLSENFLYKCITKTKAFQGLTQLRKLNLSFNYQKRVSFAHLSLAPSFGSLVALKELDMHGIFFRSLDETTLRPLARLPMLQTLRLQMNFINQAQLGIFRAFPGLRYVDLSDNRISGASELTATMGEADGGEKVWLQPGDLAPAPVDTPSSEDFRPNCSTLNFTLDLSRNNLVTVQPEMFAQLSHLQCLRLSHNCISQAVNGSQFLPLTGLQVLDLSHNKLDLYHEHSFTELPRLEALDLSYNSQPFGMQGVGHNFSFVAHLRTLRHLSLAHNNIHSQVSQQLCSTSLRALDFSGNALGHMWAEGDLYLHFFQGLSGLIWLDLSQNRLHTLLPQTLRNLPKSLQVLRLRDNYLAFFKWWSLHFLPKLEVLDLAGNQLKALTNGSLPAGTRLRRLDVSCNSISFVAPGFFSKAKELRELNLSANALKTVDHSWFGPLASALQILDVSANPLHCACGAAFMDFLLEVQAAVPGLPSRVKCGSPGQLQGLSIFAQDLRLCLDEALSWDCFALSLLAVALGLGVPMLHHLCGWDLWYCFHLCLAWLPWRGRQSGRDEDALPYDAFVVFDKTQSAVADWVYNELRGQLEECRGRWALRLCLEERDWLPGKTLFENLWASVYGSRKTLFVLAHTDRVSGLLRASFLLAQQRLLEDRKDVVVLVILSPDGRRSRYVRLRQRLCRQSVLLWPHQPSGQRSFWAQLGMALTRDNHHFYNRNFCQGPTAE
human TLR8, sequence (Q9NR97 27-1041): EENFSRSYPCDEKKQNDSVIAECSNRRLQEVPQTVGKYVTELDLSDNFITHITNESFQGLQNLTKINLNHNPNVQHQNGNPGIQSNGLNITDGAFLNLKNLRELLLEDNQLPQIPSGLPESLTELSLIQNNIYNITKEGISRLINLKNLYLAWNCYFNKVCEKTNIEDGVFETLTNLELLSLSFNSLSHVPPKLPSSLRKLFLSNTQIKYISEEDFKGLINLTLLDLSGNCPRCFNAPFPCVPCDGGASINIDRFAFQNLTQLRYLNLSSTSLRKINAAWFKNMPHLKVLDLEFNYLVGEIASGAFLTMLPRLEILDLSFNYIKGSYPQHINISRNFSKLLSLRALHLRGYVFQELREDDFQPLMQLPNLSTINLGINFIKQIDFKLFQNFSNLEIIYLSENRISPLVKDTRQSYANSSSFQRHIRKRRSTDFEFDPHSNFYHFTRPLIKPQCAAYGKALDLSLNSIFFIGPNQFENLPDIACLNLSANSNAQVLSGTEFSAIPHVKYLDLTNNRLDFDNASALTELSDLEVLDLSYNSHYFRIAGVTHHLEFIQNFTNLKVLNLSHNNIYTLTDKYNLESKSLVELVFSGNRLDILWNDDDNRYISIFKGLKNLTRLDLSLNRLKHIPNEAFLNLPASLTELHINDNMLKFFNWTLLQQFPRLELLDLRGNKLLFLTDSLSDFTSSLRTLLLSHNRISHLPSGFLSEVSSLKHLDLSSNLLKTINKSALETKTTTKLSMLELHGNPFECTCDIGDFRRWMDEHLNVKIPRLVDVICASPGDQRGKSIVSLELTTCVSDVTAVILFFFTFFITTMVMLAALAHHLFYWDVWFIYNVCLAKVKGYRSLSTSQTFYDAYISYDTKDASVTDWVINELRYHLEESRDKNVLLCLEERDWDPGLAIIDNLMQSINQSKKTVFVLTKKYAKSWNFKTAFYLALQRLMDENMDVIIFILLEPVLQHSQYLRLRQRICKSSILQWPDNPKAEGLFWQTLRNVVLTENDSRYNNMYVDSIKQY

Regarding `Cc1cc(-c2[nH]c3ccc(-c4nnc(C(=O)NCCN(C)C)o4)cc3c2C(C)C)cc(C)n1` [Example 223, N-(2-(dimethylamino)ethyl)-5-(2-(2,6-dimethylpyridin-4-yl)-3-isopropyl-1H-indol-5-yl)-1,3,4-oxadiazole-2-carboxamide], the IC50 (usually the midpoint of a concentration-inhibition curve) against human TLR7 came to 6.6 nM; on human TLR8 it was 1 nM; at human TLR9, 138 nM.
For `Cc1cc(-c2[nH]c3ccc(-c4nnc(C(=O)NCCCN(C)C)o4)cc3c2C(C)C)cc(C)n1` [Example 224, N-(3-(dimethylamino)propyl)-5-(2-(2,6-dimethylpyridin-4-yl)-3-isopropyl-1H-indol-5-yl)-1,3,4-oxadiazole-2-carboxamide] the same measures were 11 nM, 2.5 nM and 229 nM.
The corresponding values for `Cc1cc(-c2[nH]c3ccc(-c4cc5c(s4)CNCC5)cc3c2C(C)C)ccn1` [Example 225, 2-(3-isopropyl-2-(2-methylpyridin-4-yl)-1H-indol-5-yl)-4,5,6,7-tetrahydrothieno[2,3-c]pyridine] are 16 nM, 1 nM and 623 nM.
The corresponding values for `CNCCc1nnc(-c2ccc3[nH]c(-c4ccc5ncnn5c4)c(C(C)C)c3c2)o1` [Example 226, 2-(5-(2-([1,2,4]triazolo[1,5-a]pyridin-6-yl)-3-isopropyl-1H-indol-5-yl)-1,3,4-oxadiazol-2-yl)-N-methylethan-1-amine] are 46 nM, 5.5 nM and 1080 nM.
As to `CC(C)c1c(-c2ccc3ncnn3c2)[nH]c2ccc(-c3nnc([C@@H]4CCCNC4)o3)cc12` [Example 227, (R)-2-(2-([1,2,4]triazolo[1,5-a]pyridin-6-yl)-3-isopropyl-1H-indol-5-yl)-5-(piperidin-3-yl)-1,3,4-oxadiazole], the IC50 on human TLR7 amounted to 61 nM; against human TLR8, 9.4 nM; against human TLR9, 892 nM.
The corresponding values for `Cc1cc(-c2[nH]c3ccc(-c4cc5c(s4)CN(C(C)C)CC5)cc3c2C(C)C)ccn1` [Example 228, 6-isopropyl-2-(3-isopropyl-2-(2-methylpyridin-4-yl)-1H-indol-5-yl)-4,5,6,7-tetrahydrothieno[2,3-c]pyridine] are 50 nM, 0.9 nM and 652 nM.
`CC(C)c1c(-c2ccnc3[nH]ncc23)[nH]c2ccc(-c3cc4c(s3)CNCC4)cc12` [Example 229, 2-(3-isopropyl-2-(1H-pyrazolo[3,4-b]pyridin-4-yl)-1H-indol-5-yl)-4,5,6,7-tetrahydrothieno[2,3-c]pyridine]: the IC50 was 32 nM at human TLR7, 1.5 nM on human TLR8 and 961 nM against human TLR9.
For `Cc1cc(-c2[nH]c3ccc(-c4nnc(C(=O)N5CCC(N)CC5)o4)cc3c2C(C)C)cc(C)n1` [Example 230, (4-aminopiperidin-1-yl)(5-(2-(2,6-dimethylpyridin-4-yl)-3-isopropyl-1H-indol-5-yl)-1,3,4-oxadiazol-2-yl)methanone], the IC50 on human TLR7 was found to be 19 nM; against human TLR8, 9.3 nM; at human TLR9, 343 nM.
`Cc1cc(-c2[nH]c3ccc(-c4nnc(C5CN6CCC5CC6)o4)cc3c2C(C)C)ccn1` (stereo not drawn) [Example 231, 2-(3-isopropyl-2-(2-methylpyridin-4-yl)-1H-indol-5-yl)-5-(quinuclidin-3-yl)-1,3,4-oxadiazole]: the IC50 against human TLR7 was 69 nM; against human TLR8 it was 5.9 nM; at human TLR9, 895 nM.
For `Cc1cc(-c2[nH]c3ccc(-c4nnc([C@@H]5CCCNC5)o4)cc3c2C(C)C)cc(C)n1` [Example 232, (R)-2-(2-(2,6-dimethylpyridin-4-yl)-3-isopropyl-1H-indol-5-yl)-5-(piperidin-3-yl)-1,3,4-oxadiazole] the same measures were 11 nM, 3.2 nM and 950 nM.

The record behind these values is US11420958B2, “Aryl and heteroaryl substituted indole compounds” (BRISTOL-MYERS SQUIBB COMPANY, priority 2017, dated 2022).
